# Test results: US12291513B2, “Pyridinium derivatives made by hydrothermal synthesis for use as anolytes in electrochemical cells” (Wisconsin Alumni Research Foundation, priority 2021, dated 2025)
# Key:
# [1] = Cyclic voltammetry (formal potentials, Randles-Sevcik diffusion coefficients); format: physicochemical
# Method: CV and EIS experiments were ran using a PalmSens4 potentiostat with the PSTrace software. Electrochemical experiments were performed in 1.0 M NaCl supporting electrolyte using 15 mM of active material at room temperature (18° C.). Formal potentials for the redox couples were estimated by taking the average potential between the cathodic and anodic peak. Diffusional behavior was investigated by varying the scan rate between 10-100 mV·s^−1 for the first electron reduction and 50-200 mV·s^−1 for the second electron reduction, and the diffusion constants of the reduced and oxidized states (D^R and D^O) were determined via the Randles-Sevcik equation assuming ideal reversible behavior (FIG. 12D). Potentiostatic EIS measurements were used for determination of a combined diffusional constant of the reduced and oxidized states (D^EIS) and of the standard electron kinetic rate constant (k^o). These EIS measurements were performed at the formal reduction potential (held for 30 seconds before measurement) in which the concentration of the two redox states at the electrode surface were assumed to be the same and equal to half of the initially prepared redox species concentration.
# A glassy carbon working electrode (CH Instruments, 0.0707 cm^2), a saturated calomel reference electrode (SCE, CH Instruments, +0.241 V vs. SHE), and a platinum wire counter electrode were used for both CV and EIS measurements. The working electrode was polished with 1 μm, 0.3 μm, and 0.05 μm alumina slurry successively. All electrodes were rinsed with deionized water in between measurements.
# CVs were taken at various scan rates in order to determine the diffusion coefficients via the Randles-Sevcik relation (Eqn. 1) where ip is the peak current in Amps, n is number of electrons transferred, F is Faraday's constant, A is electrode surface area in cm^2, C is the redox species concentration in mole·cm^−3, R is the ideal gas constant, T is temperature, D is the diffusion coefficient, and v is scan rate in V/s. The anodic peak current […] determines the diffusion coefficient of the reduced state (D^R) while the cathodic peak current (ip,a) determines the diffusion coefficient of the oxidized state (D^O). ip=0.4463n^3/2·F^3/2·A·C·R^−1/2·T^−1/2·D^1/2·v^1/2 Eqn. 1
# [2] = Symmetric, volumetrically-unbalanced flow cell cycling; conditions: sixteen days (150 cycles) continuous charge-discharge, N2 glovebox, first redox process
# Method: The RFB measurements were carried out in a custom-made zero-gap device previously reported by Li et al. (Li, W. et al., Chem 2018, 4 (11), 2644-2657; and Li, W. et al., Adv. Energy Mater. 2019, 9 (31), 1900918.) Both symmetric flow cell and RFB full cell measurements were conducted using a Bio-Logic SP-200 potentiostat at room temperature (˜20° C.). In symmetric cells, 0.1 M of active species in 1 M NaCl (pre-charged to 50% SOC of the first electron reduction using FcNCl as the counter cathode in bulk electrolysis) was utilized on both sides with the capacity limiting side (CLS) consisting of 5 mL of solution and the non-capacity limiting side (NCLS) consisting of 10 mL of solution separated by a Selemion AMV anion-exchange membrane (Asahi Glass Co.). The neat Dex-Vi full RFB cell cycling was performed using the product from the Dex-Vi synthesis directly without any purification. The neat product was diluted to roughly 0.1 M to pair with a 0.2 M BTMAP-Fc counter catholyte in excess capacity separated by an AMV membrane. Both the anolyte and catholyte were 5 mL in total volume with 0.5 M NaCl supporting electrolyte. […]
# [3] = Degradation kinetics in sodium hydroxide; conditions: one-and-one-half order overall
# Text: The chemical stability of the first redox processes of Dex-Vi was investigated using a symmetric, volumetrically-unbalanced flow cell inside an N2 glovebox.
structure (smiles),measurement,setting,value
"C[N+](C)(C)CC(O)C[n+]1ccc(-c2cc[n+](CC(O)C[N+](C)(C)C)cc2)cc1 (stereo not shown) [Dex-Vi, bis(3-trimethylammonio-2-hydroxy)propyl viologen tetrachloride]",first electron formal potential (E1^0),"[1]; 15 mM in 1.0 M NaCl, 18° C.",−0.322 V vs. SHE
same,E1^0,[1]; Table 1,−0.322 V vs. SHE
same,E2^0,[1]; Table 1,−0.699 V vs. SHE
same,reduced state diffusion coefficient (D1^R),"[1]; first redox state, 3+ species",1.9×10^−6 cm^2·s^−1
same,oxidized state diffusion coefficient (D1^O),"[1]; first redox state, 4+ species",2.3×10^−6 cm^2·s^−1
same,D2^O,[1]; second redox state,4.0×10^−6 cm^2·s^−1
same,D2^R,[1]; second redox state,3.1×10^−6 cm^2·s^−1
same,second electron formal potential (E2^0),"[1]; vs. SHE, 15 mM in 1.0 M NaCl, 18° C.",−0.699 V
same,decay in symmetric flow cell,[2],no decay
same,degradation rate constant k,[3],2.3×10^−6 s^−1·M^−1/2
